Data taken from patent publication US20230407249A1, “Media and methods for establishing and maintaining early embryo-like cells” (BGI SHENZHEN GROUP HOLDINGS CO., LIMITED, priority 2020, published 2023).

Experiments:
[1] = tested on: primed human PSCs; experiment: Conversion of primed human PSCs to ICLCs (ICM marker expression, colony morphology); format: cell-based
Experimental: One day before initiation of conversion, primed human PSCs were washed with PBS once and dissociated into single cells and plated at a density of 1,000 to 1,500 cells/cm^2 on feeder in mTeSR1 or E8 medium supplemented with 10 μM Y27632. Twenty-four hours later, culture medium was switched to 4CL medium 1. The culture medium was refreshed with the same medium every 24 hours. Colonies became round and domed-shape in 24 to 48 hours. Cells were passaged every 3 to 4 days. For passaging, cells were dissociated into single cells using TrypLE: 0.5 mM EDTA (1:1) and plated at a density of 1,000 to 1,500 cells/cm^2 on feeder (feeders were seeded on Geltrex™/Matrigel™ pre-treated plate) (FIG. 1). The ICLCs induction and maintenance can be conducted under hypoxic condition (37° C., 5% CO2, 5% O2), or normoxic condition (37° C., 5% CO2, 21% O2) (FIG. 34), preferably hypoxia condition.
Using the same procedures of example 1, except plating cells on 1% (v/v) Geltrex™ in DMEM-F12 (cat #) coated plates instead of on feeder cells.
Primed human PSCs were cultured following the same procedures of example 1. One day before initiation of the conversion, primed human PSCs were dissociated into single cells and plated 60,000 cells/well in Aggrewell™800 plates using mTeSR1 or E8 medium supplemented with 10 μM Y27632. […]

[2] = tested on: primed human PSCs or ICLCs; experiment: Conversion of primed human PSCs or ICLCs to 8CLCs (8C marker expression); format: cell-based; conditions: CHIR99021 included in e4CL, or IWR1 withdrawn from e4CL
Experimental: Primed human PSCs were cultured following the same procedures of example 1. One day before initiation of the conversion, primed human PSCs were dissociated into single cells and plated at 2,000 to 3,000 cells/cm^2 on feeder using mTeSR1 or E8 medium supplemented with 10 μM Y27632. Twenty-four hours later, culture medium was changed into e4CL medium, cells were cultured in incubator at 37° C., 5% CO2, hypoxic or normoxic condition. Medium was refreshed daily. Cells were passaged every 3 to 4 days. For passaging, cells were dissociated into single cells using TrypLE: 0.5 mM EDTA (1:1), plated at 2,000 to 3,000 cells/cm^2 on feeder coated plates. Generally, cells were converted to 8CLCs in approximately one week. One day before initiation of the conversion, ICLCs were dissociated into single cells and plated at 2,000 to 3,000 cells/cm^2 on feeders using 4CL medium. Twenty-four hours later, culture medium is changed into e4CL medium. Medium was refreshed daily. Cells were converted to 8CLCs in 3 to 5 days without passaging. ICLCs were cultured following the same procedures of example 1. One day before initiation of the conversion, ICLCs were dissociated into single cells and resuspended in 4CL medium at a density of 300,000 cells/ml. The cell suspension was added into flasks for suspension culture (Greiner Bio-One, 658190). […]

| SMILES | ICLC formation ([1]; CHIR99021 included in 4CL, or IWR1 withdrawn from 4CL) | 8CLC formation [2] | expression levels of ICM specific genes such as DNMT3L, STELLA, DPPA5, KLF17 ([1]; final concentration of 40 to 70 μg/ml) |
| --- | --- | --- | --- |
| Cc1c[nH]c(-c2cnc(NCCNc3ccc(C#N)cn3)nc2-c2ccc(Cl)cc2Cl)n1 [CHIR99021] | inhibits formation of ICLC | inhibits formation of 8CLC | – |
| O=C1O[C@H]([C@@H](O)CO)C(O)=C1O [L-ascorbic acid] | – | – | potently increases |
